Data on 1 compound can be found in patent publication US10278971B2, “Fluorocyclopentenylcytosine methods of use” (Rexahn Pharmaceuticals, Inc., priority 2015, dated 2019).

In one test the test system is SW1573. The settings on record: as reported in Peters et al. 2013; cited from earlier work.
The subject of test [1] is A2780 ovarian cancer cells and NSCLC cell lines. The experiment in a line: Radiosensitizing effect, summary over cell lines. In kind it is cell-based, human. The following applies: preincubation, pulse and fractionated irradiation. The procedure:
Exponential growing A2780, SW1573, A549, H460 and SW1573/G-cells were exposed to 1 μM RX-3117 or untreated (control) for 24 h and irradiated with single doses γ-radiation (0-6 Gy) using a ^60Co source (Gammacell 200, Atomic Energy of Canada, Ltd). Subsequently, 500 cells/T25 flasks were plated and allowed to form colonies. After ten days colonies were fixed with 100% ethanol and stained with 10% Giemsa stain solution (Merck Chemicals BV, Amsterdam, the Netherlands) for colonies counting. Plating efficiency (PE) was calculated by dividing the number of colonies formed through the number of cells plated and normalized for cytotoxicity induced by control. To illustrate the effect of RX-3117 on radiation, dose modifying factor (DMF) was calculated as described earlier (Bijnsdorp I V, van den Berg J, Kuipers G K, Wedekind L E, Slotman B J, van Rijn J, Lafleur M V M and Sminia P: Radiosensitizing potential of the selective cyclooygenase-2 (COX-2) inhibitor meloxicam on human glioma cells. J Neurooncol 85: 25-31, 2007).

The next test has as its system SW1573 cells. Kind of test: Protein expression by western blot. In kind it is cell-based, human. How it is done:
(§1) The mechanism of cell cycle arrest was investigated by measuring cell cycle proteins expression using western blotting. The influence of RX-3117 on protein expression during different treatment conditions was analyzed by western blot. Cells were lysed using cell lysis buffer 1× (Cell Signaling, Danvers, Mass., USA) containing 4% protease inhibitor cocktail (Roche Diagnostics, Mannheim, Germany) on ice for 30 minutes and centrifuged for 10 minutes at 4° C. at 14,000 rpm. The protein containing supernatant was collected and the Bio-Rad assay was performed to determine protein amount as described in Lemos et al., Pharmacogenomics, 12(2):159-70 (2011). The following antibodies were used for protein expression: DNMT1 (Cell Signaling, 1:1000 #5032S), DNMT3A (Cell Signaling 1:1000 #2160S), DNMT3B (Abcam, 1; 1000), Chk2 (Cell Signaling 1:1000 #6334P), Chk1 (Cell Signaling 1:1000), p-CDC25C (Cell Signaling 1:1000 #4901S), Cdk1 (Cell Signaling 1:1000 #9112S), Cdk2 (Cell Signaling 1:1000 #2546S), wee1 (Cell Signaling 1:1000), 5139-γH2A.X (Cell Signaling, 1:1000), β actin (Sigma, 1:10,000), Caspase 9 (Cell Signaling, 1:1000), PARP (Roche 2003, 1:1000), p53 (Cell Signaling, 1:1000, #9282). The antibodies were diluted in 1:1 solution Rockland buffer (Rockland Inc., Philadelphia, Pa., USA) and PBS supplemented with 0.05% Tween® 20. The proteins were separated in 20% SDS-PAGE and transferred to a PVDF membrane. For fluorescent signal secondary antibodies goat anti-mouse InfraRedDye and goat anti-rabbit InfraRedDye were used. The proteins were detected by an Odyssey InfraRed Imager (Li-COR Bioscience, Lincoln, Nebr., USA).
(§2) The influence of RX-3117 on protein expression during different treatment conditions was analyzed by western blot. Cells were lysed using 1× cell lysis buffer (Cell Signaling, Danvers, Mass., USA) containing 4% protease inhibitor cocktail (Roche Diagnostics, Mannheim, Germany) on ice for 30 minutes and centrifuged for 10 minutes at 4° C. at 14,000 rpm. Bio-Rad assay was performed to determine protein amount in the collected supernatant as described earlier (Lemos C, Kathmann I, Giovannetti E, Calhau C, Jansen G and Peters G J: Impact of cellular folate status and epidermal growth factor receptor expression on BCRP/ABCG2-mediated resistance to gefitinib and erlotinib. Br J Cancer 100: 1120-7, 2009). The following antibodies were used for protein expression: γH2A.X (cat#9718, Cell Signaling, 1:1000), β-actin (Sigma, 1:10,000), Cdc25C Ser216 (cat#4901, Cell Signaling, 1:1000), Cdk1 Tyr15 (cat#9111, Cell Signaling, 1:1000), […] (cat#2197S, Cell Signaling, 1:1000), Histone 3 (cat#4499, Cell Signaling). Antibodies were diluted in 1:1 solution with Rockland buffer (Rockland Inc, Philadelphia, Pa.) and phosphate buffered saline (PBS) supplemented with 0.05 Tween 20. Proteins were separated in 20% SDS-PAGE gel and transferred to polyvinylidene difluoride (PVDF) membrane. For fluorescent signal secondary anti-bodies goat anti-mouse InfraRedDye and goat anti-rabbit InfraRedDye were used. Proteins were detected by an Odyssey InfraRed Imager (Li-COR Bioscience, Lincoln, Nebr.).
(A western blot detects proteins with antibodies after separation by electrophoresis.)

The next test relates to A549 cells. Kind of test: Protein expression by western blot. In kind it is cell-based, human. The procedure: as §1, §2
The mark [2] stands for this setting: SW1573, 10 μM, 48 hour exposure.
The mark [3] stands for this setting: SW1573, 24 hour exposure to increasing concentrations.

The term IC50 denotes the point on the concentration scale where inhibition reaches its midpoint. For the compound `Nc1ccn([C@@H]2C(F)=C(CO)[C@@H](O)[C@H]2O)c(=O)n1` [RX-3117, 4-amino-1-((1S,4R,5S)-2-fluoro-4,5-dihydroxy-3-hydroxymethyl-cyclopent-2-enyl)-1H-pyrimidin-2-one], the IC50 in the test on SW1573 was 13.7 µM. The dose modifying factors in test [1] is given as 1.4-1.8. In addition, the “γH2A.X protein expression, combination with irradiation” value with SW1573 cells (SW1573, 0.3 μM plus irradiation) is “more pronounced”. Also, in the test with SW1573 cells (SW1573, 0.3 μM, 48 h exposure), the “double strand break damage marker γH2A.X” value was “increased”. Further, the “expression of p16INK4A and MGMT” value in the test on SW1573 cells (SW1573, 5 μM, 24 hr exposure) is “increased”. In the test with SW1573 cells (setting [2]), the “Chk1 and Cdk2 expression levels” value is “increased”; the p-Cdc25C expression levels entry is given as “decreasing”. In the test with SW1573 cells (setting [3]), the “cleaved PARP” value is on record as “induced cleaved PARP”, the “pro-caspase 9” value is on record as “decreased” and the wee1 expression levels result is “decreased”. Moreover, the “double-strand breaks (DSB), biomarker γH2A.X” value in the test on SW1573 cells (SW1573, 48 hour exposure) is given as “induced double-strand breaks”. Besides, the p53 expression levels entry with A549 cells (A549, 1 μM and 5 μM) was “increased”. Further, the “expression of p16INK4A and MGMT” value in the test with A549 cells (A549, 5 μM, 24 hr exposure) is “increased”. Further, in the test with A549 cells (A549, 1-75 μM), the “DNMT3A and DNMT3B expression levels” value is “increased”. Moreover, the “pro-caspase 9” value with A549 cells (A549, 24 hour exposure to increasing concentrations) was “decreased”.
